Each structure is given as a SMILES string.

Experiment [1] deals with IL-17A-induced G-CSF production in human normal keratinocyte (NHK). Briefly: NHK Assay: IL-17A-induced G-CSF production in human normal keratinocytes. To be noted: Homo sapiens, Keratinocyte, 24 h, adult normal human keratinocytes, IL-17A 5 ng/mL, simple average if tested more than once. The class given is cell-based. In short, it runs like this: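 Compound is first combined with recombinant human IL-17A for 1 h at rt, and the mix is added to adult normal human keratinocytes so that IL-17A is 5 ng/mL. After 24 h at 37° C in 5% FBS, G-CSF released into the medium is read by HTRF and IC50 derived.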

The target in experiment [2] is IL-17A(FLAG-Tagged): IL-17RA(His-Tagged) (Homo sapiens, UniProt Q16552, K93Q). In words: IL-17A(FLAG-Tagged): IL-17RA(His-Tagged) Binding Disruption Eu-HTRF Assay. To be noted: IL-17A/IL-17RA binding disruption, simple average if tested more than once. In a few lines: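 IC50 comes from a one-site competition fit of the HTRF 665/620 nm ratio. Compound dilutions (2-fold, 22 points) were held 1 h rt with FLAG-tagged IL-17A dimer, then His-tagged IL-17RA plus Eu-cryptate anti-FLAG and D2 anti-His antibodies were added for 2 h rt.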
A general note: Time-resolved FRET reads energy transfer from a long-lived donor to a nearby acceptor.

Chain of UniProt Q16552 (Q16552 with tags, fused parts or gaps K93Q): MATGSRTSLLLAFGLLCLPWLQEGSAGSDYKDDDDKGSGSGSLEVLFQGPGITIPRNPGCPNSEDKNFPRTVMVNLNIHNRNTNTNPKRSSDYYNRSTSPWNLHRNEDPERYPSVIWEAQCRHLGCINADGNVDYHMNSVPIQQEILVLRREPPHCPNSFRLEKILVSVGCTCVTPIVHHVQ

In general, IC50 refers to the concentration that inhibits the measured activity by half. Read a low IC50 as greater potency in that assay. As to `CCc1ccnc(C(=O)N[C@H](c2cn3ncc([C@H](NC(=O)CCC(F)(F)F)C4CC4)cc3n2)C2CCC(F)(F)CC2)c1` [Example 453, N—((S)-(7-((R)-Cyclopropyl(4,4,4-trifluorobutanamido)methyl)imidazo[1,2-b]pyridazin-2-yl)(4,4-difluorocyclohexyl)methyl)-4-ethylpicolinamide], the results for the IC50 in experiment [1] and in experiment [2] were 3900 nM and 150 nM, respectively.
In the case of `Cc1cncc(C(=O)N[C@H](c2cn3ncc([C@H](NC(=O)CCC(F)(F)F)C4CC4)cc3n2)C2CCC(F)(F)CC2)c1` [Example 454, N—((S)-(7-((R)-Cyclopropyl(4,4,4-trifluorobutanamido)methyl)imidazo[1,2-b]pyridazin-2-yl)(4,4-difluorocyclohexyl)methyl)-5-methylnicotinamide], the values for the IC50 in experiment [1] and in experiment [2] were 3400 nM and 320 nM, respectively.
Taken in the same sequence, the figures for `O=C(CCC(F)(F)F)N[C@@H](c1cnn2cc([C@@H](NC(=O)c3cncc(C(F)F)c3)C3CCC(F)(F)CC3)nc2c1)C1CC1` [Example 455, N—((S)-(7-((R)-Cyclopropyl(4,4,4-trifluorobutanamido)methyl)imidazo[1,2-b]pyridazin-2-yl)(4,4-difluorocyclohexyl)methyl)-5-(difluoromethyl)nicotinamide] were 850 nM and 130 nM.
Take `O=C(CCC(F)(F)F)N[C@@H](c1cnn2cc([C@@H](NC(=O)c3ccccn3)C3CCC(F)(F)CC3)nc2c1)C1CC1` [Example 456, N—((S)-(7-((R)-Cyclopropyl(4,4,4-trifluorobutanamido)methyl)imidazo[1,2-b]pyridazin-2-yl)(4,4-difluorocyclohexyl)methyl)picolinamide]: the IC50 in experiment [1] was more than 20000 nM; in experiment [2] it was 780 nM.
In the case of `O=C(CCC(F)(F)F)N[C@@H](c1cnn2cc([C@@H](NC(=O)c3ccnnc3)C3CCC(F)(F)CC3)nc2c1)C1CC1` [Example 457, N—((S)-(7-((R)-Cyclopropyl(4,4,4-trifluorobutanamido)methyl)imidazo[1,2-b]pyridazin-2-yl)(4,4-difluorocyclohexyl)methyl)pyridazine-4-carboxamide], the IC50 in experiment [1] was determined as 2900 nM; in experiment [2] it was 1200 nM.
Taken in the same sequence, the figures for `O=C(CCC(F)(F)F)N[C@@H](c1cnn2cc([C@@H](NC(=O)c3cccnn3)C3CCC(F)(F)CC3)nc2c1)C1CC1` [Example 458, N—((S)-(7-((R)-Cyclopropyl(4,4,4-trifluorobutanamido)methyl)imidazo[1,2-b]pyridazin-2-yl)(4,4-difluorocyclohexyl)methyl)pyridazine-3-carboxamide] were more than 20000 nM and 7800 nM.
With `COc1cc(C(=O)N[C@H](c2cn3ncc([C@H](NC(=O)CCC(F)(F)F)C4CC4)cc3n2)C2CCC(F)(F)CC2)cnn1` [Example 459, N—((S)-(7-((R)-Cyclopropyl(4,4,4-trifluorobutanamido)methyl)imidazo[1,2-b]pyridazin-2-yl)(4,4-difluorocyclohexyl)methyl)-6-methoxypyridazine-4-carboxamide], the IC50 was more than 20000 nM in experiment [1] and 1300 nM in experiment [2].
Taken in the same sequence, the figures for `O=C(CCC(F)(F)F)N[C@@H](c1cnn2cc([C@@H](NC(=O)c3cc(C4CC4)ccn3)C3CCC(F)(F)CC3)nc2c1)C1CC1` [Example 460, 4-Cyclopropyl-N—((S)-(7-((R)-cyclopropyl(4,4,4-trifluorobutanamido)methyl)imidazo[1,2-b]pyridazin-2-yl)(4,4-difluorocyclohexyl)methyl)picolinamide] were 1100 nM and 110 nM.
For the compound `N#Cc1ccnc(C(=O)N[C@H](c2cn3ncc([C@H](NC(=O)CCC(F)(F)F)C4CC4)cc3n2)C2CCC(F)(F)CC2)c1` [Example 461, 4-Cyano-N—((S)-(7-((R)-cyclopropyl(4,4,4-trifluorobutanamido)methyl)imidazo[1,2-b]pyridazin-2-yl)(4,4-difluorocyclohexyl)methyl)picolinamide], the IC50 is more than 20000 nM in experiment [1] and 1600 nM in experiment [2].
With `COCc1cncc(C(=O)N[C@H](c2cn3ncc([C@H](NC(=O)CCC(F)(F)F)C4CC4)cc3n2)C2CCC(F)(F)CC2)c1` [Example 462, N—((S)-(7-((R)-Cyclopropyl(4,4,4-trifluorobutanamido)methyl)imidazo[1,2-b]pyridazin-2-yl)(4,4-difluorocyclohexyl)methyl)-5-(methoxymethyl)nicotinamide], the IC50 in experiment [1] is 1100 nM; in experiment [2], 140 nM.
For `CC(C)c1ccsc1C(=O)N[C@H](c1cn2ncc([C@H](NC(=O)CCC(F)(F)F)C3CC3)cc2n1)C1CCC(F)(F)CC1` [Example 463, N—((S)-(7-((R)-Cyclopropyl(4,4,4-trifluorobutanamido)methyl)imidazo[1,2-b]pyridazin-2-yl)(4,4-difluorocyclohexyl)methyl)-3-isopropylthiophene-2-carboxamide], in that order: 380 nM and 94 nM.
Take `COc1cc(C(=O)N[C@H](c2cn3ncc([C@H](NC(=O)CCC(F)(F)F)C4CC4)cc3n2)C2CCC(F)(F)CC2)ncn1` [Example 465, N—((S)-(7-((R)-Cyclopropyl(4,4,4-trifluorobutanamido)methyl)imidazo[1,2-b]pyridazin-2-yl)(4,4-difluorocyclohexyl)methyl)-6-methoxypyrimidine-4-carboxamide]: the IC50 in experiment [1] was found to be 1600 nM; in experiment [2] it was 920 nM.
Turning to `Cn1nnnc1C(=O)N[C@H](c1cn2ncc([C@H](NC(=O)CCC(F)(F)F)C3CC3)cc2n1)C1CCC(F)(F)CC1` [Example 468, N—((S)-(7-((R)-Cyclopropyl(4,4,4-trifluorobutanamido)methyl)imidazo[1,2-b]pyridazin-2-yl)(4,4-difluorocyclohexyl)methyl)-1-methyl-1H-tetrazole-5-carboxamide], the 50% inhibitory concentration (IC50) came out at 1700 nM in experiment [1] and 750 nM in experiment [2].
Take `Cn1ccnc1C(=O)N[C@H](c1cn2ncc([C@H](NC(=O)CCC(F)(F)F)C3CC3)cc2n1)C1CCC(F)(F)CC1` [Example 469, N—((S)-(7-((R)-Cyclopropyl(4,4,4-trifluorobutanamido)methyl)imidazo[1,2-b]pyridazin-2-yl)(4,4-difluorocyclohexyl)methyl)-1-methyl-1H-imidazole-2-carboxamide]: the IC50 was more than 20000 nM in experiment [1] and 1200 nM in experiment [2].
For `CCc1cnoc1C(=O)N[C@H](c1cn2ncc([C@H](NC(=O)CCC(F)(F)F)C3CC3)cc2n1)C1CCC(F)(F)CC1` [Example 470, N—((S)-(7-((R)-Cyclopropyl(4,4,4-trifluorobutanamido)methyl)imidazo[1,2-b]pyridazin-2-yl)(4,4-difluorocyclohexyl)methyl)-4-ethylisoxazole-5-carboxamide], in that order: 110 nM and 54 nM.
For `Cc1ncoc1C(=O)N[C@H](c1cn2ncc([C@H](NC(=O)CCC(F)(F)F)C3CC3)cc2n1)C1CCC(F)(F)CC1` [Example 471, N—((S)-(7-((R)-Cyclopropyl(4,4,4-trifluorobutanamido)methyl)imidazo[1,2-b]pyridazin-2-yl)(4,4-difluorocyclohexyl)methyl)-4-methyloxazole-5-carboxamide], the IC50 in experiment [1] came out at 2300 nM; in experiment [2] it was 380 nM.
For `Cc1nc(C)c(C(=O)N[C@H](c2cn3ncc([C@H](NC(=O)CCC(F)(F)F)C4CC4)cc3n2)C2CCC(F)(F)CC2)o1` [Example 472, N—((S)-(7-((R)-Cyclopropyl(4,4,4-trifluorobutanamido)methyl)imidazo[1,2-b]pyridazin-2-yl)(4,4-difluorocyclohexyl)methyl)-2,4-dimethyloxazole-5-carboxamide], in that order: more than 20000 nM and 45000 nM.
Turning to `Cc1noc(C(=O)N[C@H](c2cn3ncc([C@H](NC(=O)CCC(F)(F)F)C4CC4)cc3n2)C2CCC(F)(F)CC2)c1C` [Example 473, N—((S)-(7-((R)-Cyclopropyl(4,4,4-trifluorobutanamido)methyl)imidazo[1,2-b]pyridazin-2-yl)(4,4-difluorocyclohexyl)methyl)-3,4-dimethylisoxazole-5-carboxamide], the IC50 in experiment [1] is more than 20000 nM; in experiment [2] it was 8500 nM.
Taken in the same sequence, the figures for `O=C(CCC(F)(F)F)N[C@@H](c1cnn2cc([C@@H](NC(=O)c3conc3C3CCC3)C3CCC(F)(F)CC3)nc2c1)C1CC1` [Example 474, 3-Cyclobutyl-N—((S)-(7-((R)-cyclopropyl(4,4,4-trifluorobutanamido)methyl)imidazo[1,2-b]pyridazin-2-yl)(4,4-difluorocyclohexyl)methyl)isoxazole-4-carboxamide] were 130 nM and 41 nM.
`O=C(CCC(F)(F)F)NC(c1cnn2cc(C(NC(=O)c3ncnn3CC3CC3(F)F)C3CCC(F)(F)CC3)nc2c1)C1CC1` [Example 475, N—((R)-(7-((S)-Cyclopropyl(4,4,4-trifluorobutanamido)methyl)imidazo[1,2-b]pyridazin-2-yl)(4,4-difluorocyclohexyl)methyl)-1-((2,2-difluorocyclopropyl)methyl)-1H-1,2,4-triazole-5-carboxamide]: the values for the IC50 in experiment [1] and in experiment [2] were 330 nM and 130 nM, respectively.
With `CC(F)(F)CCn1ncnc1C(=O)N[C@H](c1cn2ncc([C@H](NC(=O)CCC(F)(F)F)C3CC3)cc2n1)C1CCC(F)(F)CC1` [Example 476, N—((S)-(7-((R)-Cyclopropyl(4,4,4-trifluorobutanamido)methyl)imidazo[1,2-b]pyridazin-2-yl)(4,4-difluorocyclohexyl)methyl)-1-(3,3-difluorobutyl)-1H-1,2,4-triazole-5-carboxamide], the IC50 amounted to 390 nM in experiment [1] and 130 nM in experiment [2].

These data come from patent publication US11702422B2, “Imidazopyridazines as modulators of IL-17” (Janssen Pharmaceutica NV, priority 2020, dated 2023).
